This passage reports Activity and viability results from ChEMBL document CHEMBL5365509, “Structure-Activity Relationship and Molecular Docking of Quinazolinones Inhibiting Expression of COX-2, IL-1β, iNOS, and TNF-α through NF-κB Pathways” (ACS Med Chem Lett, 2023).

Data set [1] deals with RAW264.7. Briefly: Anti-inflammatory activity in mouse RAW264.7 assessed as decrease in LPS-induced IL-1beta mRNA expression incubated for 16 hrs by RT-PCR analysis. Type of data set: functional, cell-based. Conditions: dose 0.1-62.5 µM.
For data set [2], the system named is RAW264.7. Briefly: Anti-inflammatory activity in mouse RAW264.7 assessed as decrease in LPS-induced COX-2 mRNA expression incubated for 16 hrs by RT-PCR analysis. Conditions: dose 0.1-62.5 µM. Type of data set: functional, cell-based.
Data set [3] concerns RAW264.7. Briefly: Anti-inflammatory activity in mouse RAW264.7 assessed as LPS-induced TNF-alpha mRNA expression at 62.5 uM incubated for 16 hrs by RT-PCR analysis relative to control. Type of data set: functional.
Data set [4] deals with RAW264.7. Briefly: Anti-inflammatory activity in mouse RAW264.7 assessed as decrease in LPS-induced IL-1beta mRNA expression at 62.5 uM incubated for 16 hrs by RT-PCR analysis. Type of data set: functional, cell-based.
In data set [5] the test system is RAW264.7. Briefly: Anti-inflammatory activity in mouse RAW264.7 assessed as LPS-induced IL-1beta mRNA expression at 62.5 uM incubated for 16 hrs by RT-PCR analysis relative to control. It counts as functional.
For data set [6], the system named is RAW264.7. Briefly: Anti-inflammatory activity in mouse RAW264.7 assessed as LPS-induced COX-2 mRNA expression at 62.5 uM incubated for 16 hrs by RT-PCR analysis relative to control. It counts as functional.
The nature of another data set: in vitro. As to conditions: mouse.
The test system of data set [7] is RAW264.7. Briefly: Cytotoxicity against mouse RAW264.7 cells assessed as cell viability at 6.25 uM by MTT assay. Type of data set: toxicity, cell-based. Conditions: raw264.7, 6.25 µM.
In data set [8] the test system is RAW264.7. Briefly: Anti-inflammatory activity in mouse RAW264.7 assessed as decrease in LPS-induced TNF-alpha mRNA expression at 62.5 uM incubated for 16 hrs by RT-PCR analysis relative to control. Further details: scale not given: the % may be the effect or the level left. Type of data set: functional.
Data set [9] has as its system RAW264.7. Briefly: Anti-inflammatory activity in mouse RAW264.7 assessed as decrease in LPS-induced IL-1beta mRNA expression at 62.5 uM incubated for 16 hrs by RT-PCR analysis relative to control. It counts as functional. Further details: scale not given: the % may be the effect or the level left.
Data set [10] relates to RAW264.7. Briefly: Anti-inflammatory activity in mouse RAW264.7 assessed as decrease in LPS-induced COX-2 mRNA expression at 62.5 uM incubated for 16 hrs by RT-PCR analysis relative to control. Type of data set: functional. Further details: scale not given: the % may be the effect or the level left.
Data set [11] relates to RAW264.7. Briefly: Anti-inflammatory activity in mouse RAW264.7 assessed as decrease in LPS-induced COX-2 mRNA expression at 62.5 uM incubated for 16 hrs by RT-PCR analysis. It counts as functional, cell-based.
The subject of data set [12] is RAW264.7. Briefly: Anti-inflammatory activity in mouse RAW264.7 assessed as LPS-induced iNOS mRNA expression at 62.5 uM incubated for 16 hrs by RT-PCR analysis relative to control. Type of data set: functional.
Data set [13] relates to RAW264.7. Briefly: Anti-inflammatory activity in mouse RAW264.7 assessed as decrease in LPS-induced iNOS mRNA expression at 62.5 uM incubated for 16 hrs by RT-PCR analysis relative to control. It counts as functional. Further details: scale not given: the % may be the effect or the level left.

Calls of active or inactive are those of the source. The rule behind the calls is not given here. Some results are limits rather than exact numbers.

Description for in vitro: Cytotoxicity against mouse RAW264.7 cells assessed as cell viability at 6.25 uM by MTT assay relative to control

On to `CCCCCCCCc1nc2ccccc2c(=O)[nH]1`, for which the Activity entry in the data set on RAW264.7 [1] is “Dose-Dependent Effect”; in the data set with RAW264.7 [2], “Dose-Dependent Effect”; in the data set with RAW264.7 [3] it was 44%; in the data set on RAW264.7 [5] it was 6.92%; with RAW264.7 [6], 11.14%. Besides, the result in the data set with RAW264.7 [4] was Active. The viability (as a rule, a read-out of living cells in per cent, often relative to untreated cells) at 6.25 µM in the data set “in vitro” (RAW264.7 cells) was over 80%.
`COc1ccc(-c2nc3ccccc3c(=O)[nH]2)cc1` yielded a viability at 6.25 µM in the data set “in vitro” (RAW264.7 cells) of over 80%.
With `O=c1[nH]c(/C=C/c2ccccc2)nc2ccccc12`, the Activity result with RAW264.7 [7] is given as “Toxic”.
As to `Oc1ncnc2cc(Cl)ccc12`, the results for the Activity with RAW264.7 [8] and with RAW264.7 [9] were under 50% and 10.85%, respectively. The molecule also registered a viability at 6.25 µM in the data set “in vitro” (RAW264.7 cells) of over 80%.
In the data set “in vitro” (raw264.7), `O=c1[nH]cnc2ccccc12` [QUINAZOLINONE] registered a viability at 6.25 µM of over 80%.
For the molecule `CCC(C)c1nc2ccccc2c(=O)[nH]1` (configuration not stated), the Activity in the data set with RAW264.7 [3] worked out at 44%; in the data set with RAW264.7 [5] it was 4.02%; in the data set on RAW264.7 [6], 0.5%. Further, the result with RAW264.7 [4] was Active. The viability at 6.25 µM in “in vitro” (RAW264.7 cells) was over 80%.
As for `CCCCCCc1nc2ccccc2c(=O)[nH]1`, the figures for the Activity in the data set with RAW264.7 [5] and in the data set with RAW264.7 [10] were 3.1% and 95%, respectively. The molecule further returned a viability at 6.25 µM in the data set “in vitro” (RAW264.7 cells) of over 80%.
`Cc1nc2ccccc2c(=O)[nH]1`: the Activity with RAW264.7 [5] worked out at 58.79%; in the data set with RAW264.7 [6], 60.96%. This molecule also displayed a viability at 6.25 µM in “in vitro” (RAW264.7 cells) of over 80%.
As for `COc1ccc(-c2nc(O)c3ccccc3n2)cc1`, the Activity with RAW264.7 [5] is reported as under 35%. In addition, in the data set with RAW264.7 [11], the outcome was inactive.
In the case of `Cc1cccc(-c2nc(O)c3ccccc3n2)c1`, the Activity was under 35% with RAW264.7 [5] and 3.79% in the data set with RAW264.7 [6]. Further, the viability at 6.25 µM in the data set “in vitro” (RAW264.7 cells) was over 80%.
As for `O=c1[nH]cnc2ncccc12`, the Activity in the data set on RAW264.7 [12] amounted to 62.82%. The outcome with RAW264.7 [4] and with RAW264.7 [11] was inactive. Also, the viability at 6.25 µM in the data set “in vitro” (RAW264.7 cells) is over 80%.
For the molecule `O=c1[nH]cnc2cc(F)ccc12`, the values for the Activity in the data set with RAW264.7 [8] and with RAW264.7 [9] were under 50% and 10.85%, respectively. For the same molecule, the viability at 6.25 µM in the data set “in vitro” (RAW264.7 cells) is over 80%.
As for `O=c1[nH]c(-c2cccc(C(F)(F)F)c2)nc2ccccc12`, the Activity was 13.98% in the data set on RAW264.7 [12] and under 35% with RAW264.7 [5]. In addition, the result in the data set on RAW264.7 [11] was inactive. This molecule also gave a viability at 6.25 µM in “in vitro” (RAW264.7 cells) of over 80%.
For the molecule `O=c1[nH]cnc2ccc(F)cc12`, the Activity is under 50% with RAW264.7 [8] and 10.85% in the data set on RAW264.7 [9]. Moreover, the viability at 6.25 µM in the data set “in vitro” (RAW264.7 cells) is over 80%.
Consider `CC(C)c1nc2ccccc2c(=O)[nH]1`, for which, in the data set on RAW264.7 [4], the outcome was Active. Besides, the Activity in the data set with RAW264.7 [5] is recorded as 14.02%; with RAW264.7 [6], 20.47%. Besides, the viability at 6.25 µM in “in vitro” (RAW264.7 cells) is over 80%.
With `Cn1cnc2ccccc2c1=O`, the Activity is under 22% in the data set with RAW264.7 [13] and 28.85% in the data set on RAW264.7 [10]. In addition, the viability at 6.25 µM in “in vitro” (RAW264.7 cells) was over 80%.
Consider `O=c1c2ccccc2ncn1-c1ccccc1`, for which the Activity in the data set with RAW264.7 [13] is given as under 22%; with RAW264.7 [10], 28.46%. The same molecule gave a viability at 6.25 µM in the data set “in vitro” (RAW264.7 cells) of over 80%.
As for `CC(c1ccccc1)n1cnc2ccccc2c1=O` (configuration not stated), in the data set with RAW264.7 [13], the Activity is given as under 22%. The outcome in the data set on RAW264.7 [11] was Active. Moreover, the viability at 6.25 µM in the data set “in vitro” (RAW264.7 cells) is over 80%.
With `Oc1nc(C2CCCCC2)nc2ccccc12`, the Activity result in the data set with RAW264.7 [1] is “Dose-Dependent Effect”; in the data set with RAW264.7 [2], “Dose-Dependent Effect”; in the data set on RAW264.7 [3], 44%; in the data set with RAW264.7 [9], 75.72%; with RAW264.7 [6], over 80%. This molecule also came in with a viability at 6.25 µM in the data set “in vitro” (RAW264.7 cells) of over 80%.
